Measured values published in EP0171342A1, “Substituted 2-(1-amino-akylidenyl)1,3-indane diones, process for their preparation and their therapeutical use” (priority 1984, dated 1986).
Values after ≈ are worked out from the molar mass of the structure shown. Where two headings read alike, the source gives them in different places.

Assays:
[1] = system: rat Wistar soumis à une surcharge saline; test: Diuretic activity in selected Wistar rats given a saline overload (modified Wiebelhaus test); format: in vivo
Description: L'activité diurétique des produits selon l'invention a été également déterminée chez le rat Wistar soumis à une surcharge saline selon une modification du test décrit par Wiebelhaus et coll., Fed. Proc., 1960, 19, 364, en procédant à une sélection des animaux. A la dose de 20 mg/kg, les COR4003, COR4008, COR4009, COR4010, COR4011, COR4012, COR4014, COR4016, COR4021, COR4025 augmentent l'excrétion urinaire volumétrique mesurée au bout de 6 heures de respectivement 56, 54, 65, 95, 73, 54, 33, 40, 99 et 92 %. L'excrétion urinaire du sodium augmente de respectivement 56, 24, 42, 59, 43, 33, 29, 43, 31, 83, 26, 99, 40 % toujours à cette dose pour les COR4003, COR4008, COR4009, COR4010, COR4011, COR4012, COR4014, COR4016, COR4017, COR4021, COR4023, COR4025 et COR4026. Le rapport Na/K demeure la plupart du temps inchangé. Testé dans les mêmes conditions le furosémide, administré à la dose de 20 mg/kg entraine 63% d'augmentation de l'excrétion urinaire volumétrique et 53% d'augmentation de l'excrétion urinaire du sodium.

[2] = system: rat soumis à une surcharge hydrique; test: Diuretic activity in rats given a water overload, oral; format: in vivo; conditions: read-out: facteur multipliant l'excrétion urinaire du sodium
Description: L'activité diurétique a été déterminée sur plusieurs modèles expérimentaux. Chez le rat soumis à une surcharge hydrique, administrés par voie orale à la dose de 20 mg/kg, le COR3760, le COR3789, le COR3792, le COR4002, le COR4003, le COR4009, le COR4010, le COR4012 et le COR4014 multiplient l'excrétion urinaire du sodium par respectivement un facteur 2,9 - 3,1 - 5,9 - 2,6 - 7,2 - 3,5 - 3,8 - 2,9 - 2,4. Administrés à la dose de 10 mg/kg, dans les mêmes conditions, les COR3760, COR3789, COR3792, COR4003 et COR4010 multiplient l'excrétion sodique par respectivement 2,3 - 2,9 - 2,8 - 2,4 et 2,5. La spironolactone multiplie quant à elle l'excrétion sodique d'un facteur 3,6 à la dose de 20 mg/kg. Administré à la dose de 5 mg/kg dans les mêmes conditions, le COR3792 multiplie l'excrétion sodique par 3,3. Administré par voie orale chez le rat ou la souris soumis à une surcharge saline, le COR3760 augmente l'excrétion urinaire volumétrique mesurée à la sixième heure de respectivement 49, 119 et 134% chez la souris et 28, 84 et 116% chez le rat après administration de 10, 20, et 40 mg/kg. Le COR3760 a été administré par voie orale au rat soumis à une surcharge hydrique et l'excrétion urinaire volumétrique, le sodium et le potassium excrétés ont été mesurés sur une période de 6 heures; ces paramètres ont varié de respectivement +17%, +102%, +165% à 10 mg/kg, +19%, +147%, +180% à 20 mg/kg et +36%, +415% et +239% à 40 mg/kg; le rapport Na/K passe de 0,56 chez les animaux témoins à 0,4 à 10 mg/kg, 0,49 à 20 mg/kg et 0, 8 à 40 mg/ kg. Au cours d'une seconde expérimentation, le COR3760 a entrainé des variations de +19%, +157%, +70% à 40 mg/kg, +19%, +319%, +90% à 60 mg/kg et +29%, +472% et +77% à 80 mg/kg; le rapport Na/K passe de 0,59 chez les animaux témoins à 0,88 à 40, 1,15 à 60 et 1,88 à 80 mg/kg.

souris = test: Acute toxicity (mortality, LD50) in mice; format: in vivo; conditions: mouse
[3] = Acute toxicity (mortality, LD50) in mice; format: in vivo; conditions: in vivo, mouse, read-out: mortalité
[4] = system: segments d'iléon de cobaye isolés; test: Anticholinergic activity: acetylcholine-induced contractions of isolated guinea pig ileum; conditions: Cavia porcellus; contractions induced by 0,1 microg/ml acetylcholine; read-out: concentration qui inhibe ces contractions de 80%
Text: L'activité anticholinergique a été appréciée par la mesure des contractions induites par 0,1 microg/ml d'acétylcholine sur des segments d'iléon de cobaye isolés. Les COR3760, COR3789, COR3792, COR4003, COR4008, COR4010, COR4014 utilisés respectivement aux concentrations de 50, 25, 25, 50, 25, 10, 25 microg/ml inhibent ces contractions de 80%.

[5] = system: poumon de cobaye isolé perfusé; test: Bronchodilator activity: isolated perfused guinea pig lung contracted by methacholine; conditions: flow of Tyrode solution, lung contracted by 0,05 microg/ml methacholine; read-out: concentration qui augmente ce débit de 50%
Text: L'activité bronchodilatatrice a été déterminée in vitro par la mesure du débit d'une solution de Tyrode à travers un poumon de cobaye isolé perfusé, contracté par l'addition au fluide de perfusion de 0,05 microg/ml de méthacholine. Les COR3760, COR3789, COR3792, COR4003, COR4008, COR4010 et COR4014 utilisés respectivement aux concentrations de 50, 50, 100, 10, 50, 50 et 10 microg/ml augmentent ce débit de 50%. L'aminophylline entraine cette même activité à la concentration de 100 microg/ml.

[6] = system: oedème induit par l'injection intraplantaire de carragénine chez le rat; test: Anti-inflammatory activity: carrageenan paw oedema in rats; format: in vivo; conditions: oral 1 h before carrageenan, measured 3 h after
Description: L'activité antiinflammatoire a été déterminée chez le rat par la mesure de l'inhibition de l'oedème induit par l'injection intraplantaire de 0,1 ml d'une suspension à 1% de carragénine chez le rat. Les produits à tester sont administrés par voie orale lh avant l'injection de carragénine et la mesure est réalisée 3h après cette injection. Les COR3789, COR3792, COR4003, COR4008 et COR4010 administrés à 10b mg/kg entrainent respectivement 43, 42, 41, 38 et 39% d'inhibition. Administré à 200 mg/kg, le COR3773 entraine 53% d'inhibition. L'aspirine administrée dans les mêmes conditions à 150 mg/kg entraine 40% d'inhibition de l'oedème.

[7] = read-out: augmentation de l'excrétion urinaire du sodium
[8] = rat, water overload, oral, 20 mg/kg
[9] = 6 h, read-out: augmentation de l'excrétion urinaire volumétrique mesurée au bout de 6 heures

Structure (SMILES)	change in vivo at 20 mg/kg [1, 7]	change in vivo at 20 mg/kg [1, 9]	mortalité (souris; intraperitoneal, 200 mg/kg)	mortalité (souris; oral, 300 mg/kg)	further results
CCCC(NC)=C1C(=O)c2ccccc2C1=O [COR4017, (Méthylamino-1 butylidényl)-2 indanedione-1,3]	31%	–	–	–	–
CNC(C)=C1C(=O)c2ccc([N+](=O)[O-])cc2C1=O [COR4002, Nitro-5 (méthylamino-1 éthylidényl)-2 indanedione-1,3]	–	–	–	–	response vs control in vivo at 20 mg/kg [2, 8]: 260%; mortalité (souris; intraperitoneal, 100 mg/kg): aucune mortalité; mortalité (souris; oral, 100 mg/kg): aucune mortalité; mortality ([3]; ip, intraperitoneal, 200 mg/kg): 100%; mortality ([3]; oral, 300 mg/kg): 100%
CCNC(CC)=C1C(=O)c2ccccc2C1=O [COR4021, (Ethylamino-1 propylidényl)-2 indanedione-1,3]	83%	99%	–	–	–
CC(NC1CCCC1)=C1C(=O)c2ccccc2C1=O [COR4012, (Cyclopentylamino-1 éthylidényl)-2 indanedione-1,3]	33%	54%	aucune mortalité	aucune mortalité	response vs control in vivo at 20 mg/kg [2, 8]: 290%
CC(NC(C)C)=C1C(=O)c2cc(Cl)c(Cl)cc2C1=O [COR4016, Dichloro-5,6 (isopropylamino-1 éthylidényl)-2 indanedione-1,3]	43%	40%	aucune mortalité	aucune mortalité	–
CNC(=C1C(=O)c2ccccc2C1=O)c1ccccc1 [COR4004, (Alpha-méthylamino benzylidényl)-2 indanedione-1,3]	–	–	aucune mortalité	aucune mortalité	–
CC(C)NC(=C1C(=O)c2ccccc2C1=O)C(C)C [COR4023, (Isopropylamino-1 isobutylidényl)-2 indanedione-1,3]	26%	–	–	–	–
CC(=O)S[C@@H]1CC2=CC(=O)CC[C@]2(C)[C@H]2CC[C@@]3(C)[C@@H](CC[C@@]34CCC(=O)O4)[C@H]12 [spironolactone, reference compound]	–	–	–	–	response vs control in vivo at 20 mg/kg ([2]; Rattus norvegicus, po): 360%
CC(NCC(C)C)=C1C(=O)c2ccccc2C1=O [COR4008, (Isobutylamino-1 éthylidényl)-2 indanedione-1,3]	24%	54%	aucune mortalité	aucune mortalité	IC80 [4]: 25 µg/mL (≈ 103 µM); EC50 [5]: 50 µg/mL (≈ 206 µM); inhibition de l'oedème ([6]; dose 10b mg/kg [sic]): 38%
CC(NC1CC1)=C1C(=O)c2ccccc2C1=O [COR4014, (Cyclopropylamino-1 éthylidényl)-2 indanedione-1,3]	29%	33%	aucune mortalité	aucune mortalité	IC80 [4]: 25 µg/mL (≈ 110 µM); response vs control in vivo at 20 mg/kg [2, 8]: 240%; EC50 [5]: 10 µg/mL (≈ 44 µM)
CNC(C)=C1C(=O)c2cc(Cl)c(Cl)cc2C1=O [COR4006, Dichloro-5,6 (méthylamino-1 éthylidényl)-2 indanedione-1,3]	–	–	aucune mortalité	aucune mortalité	–
CCC(NC(C)C)=C1C(=O)c2ccccc2C1=O [COR4025, (Isopropylamino-1 propylidényl)-2 indanedione-1,3]	99%	92%	–	–	–
CC(=O)NS(=O)(=O)c1cc2c(cc1Cl)C(=O)C(=C(C)NC(C)C)C2=O [COR4015, N-acétylsulfonamido-6 chloro-5 (isopropylamino-1 éthylidényl)-2 indanedione-1,3]	–	–	aucune mortalité	aucune mortalité	–
CC(NC1CCCCC1)=C1C(=O)c2ccccc2C1=O [COR4013, (Cyclohexylamino-1 éthylidényl)-2 indanedione-1,3]	–	–	aucune mortalité	aucune mortalité	–
CCNC(C)=C1C(=O)c2ccc(Cl)cc2C1=O [COR3774, Chloro-5 (éthylamino-1 éthylidène)-2 indanedione-1,3]	–	–	aucune mortalité	aucune mortalité	–
NS(=O)(=O)c1cc(C(=O)O)c(NCc2ccco2)cc1Cl [furosémide, reference compound]	53%	63%	–	–	–
CC(=O)Oc1ccccc1C(=O)O [aspirine, reference compound]	–	–	–	–	inhibition de l'oedème ([6]; 150 mg/kg): 40%
CCNC(C)=C1C(=O)c2cc(Cl)c(Cl)cc2C1=O [COR4007, Dichloro-5,6 (éthylamino-1 éthylidényl)-2 indanedione-1,3]	–	–	aucune mortalité	aucune mortalité	–
CC(NC(C)(C)C)=C1C(=O)c2ccccc2C1=O [COR4001, (Tertiobutylamino-1 éthylidényl)-2 indanedione-1,3]	–	–	–	–	mortalité (souris; intraperitoneal, 100 mg/kg): aucune mortalité; mortalité (souris; oral, 100 mg/kg): aucune mortalité; mortality ([3]; ip, intraperitoneal, 200 mg/kg): 100%; mortality ([3]; oral, 300 mg/kg): 100%
Cn1c(=O)c2[nH]cnc2n(C)c1=O [aminophylline, reference compound]	–	–	–	–	EC50 [5]: 100 µg/mL (≈ 555 µM)
CC(N)=C1C(=O)c2ccccc2C1=O [COR4026, (Amino-1 éthylidényl)-2 indanedione-1,3]	40%	–	–	–	–
CC(=C1C(=O)c2ccccc2C1=O)N(C)C [COR3788, (Diméthylamino-1 éthylidène)-2 indanedione-1,3]	–	–	–	–	mortalité (souris; intraperitoneal, 100 mg/kg): aucune mortalité; mortality ([3]; ip, intraperitoneal, 200 mg/kg): 100%; mortality ([3]; oral, 300 mg/kg): 100%
